# According to ChEMBL document CHEMBL1129326, “Inhibition of DNA topoisomerase II by azaelliptitoxins functionalized in the variable substituent domain” (J Med Chem, 1996):
# Activity calls are given as the source filed them. No cut-off for these calls is given here.
# Molecular target: DNA topoisomerase II (Homo sapiens) (UniProt P11388+Q02880)
# Assay: Inhibitory activity against human DNA Topoisomerase-2, activity is expressed as relative DNA cleavage compared to Azatoxin by densitometric analysis; inactive
# Format: protein assay
row,SMILES,Activity
1,COc1cc([C@@H]2c3[nH]c4ccccc4c3[C@@H](Nc3cc(OC)c(OC)c(OC)c3)[C@H]3COC(=O)N23)cc(OC)c1O,inactive
2,COc1cc(N[C@@H]2c3c([nH]c4ccccc34)[C@@H](c3cc(OC)c(O)c(OC)c3)N3C(=O)OC[C@H]23)ccc1O,inactive
3,COc1cc([C@@H]2c3[nH]c4ccccc4c3[C@@H](OC)[C@H]3COC(=O)N23)cc(OC)c1O,inactive
